Results reported in patent US20260250318A1, “COMPOSITIONS AND METHODS FOR CROSSING THE BLOOD BRAIN BARRIER” (VOYAGER THERAPEUTICS, INC., priority 2022, published 2026).

Experiments:
Settings in all cases: synthetic library passage 3, intravenous, relative to wild-type AAV9
[1] = system: brain, spinal cord, and DRG of the NHPs; test: NGS fold enrichment of synthetic library (passage 3) in NHPs, first cross-species screen; format: in vivo, cynomolgus macaques (Macaca fascicularis)
In short: (§1)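 Synthetic capsid library (passage 3) was given intravenously […] to NHPs aged 2-4 years and to BALB/c and C57Bl/6 mice (n=3 each, 6-8 weeks). After about 28 days in vivo, tissue RNA was RT-PCR amplified and NGS-sequenced; values are fold enrichment per variant relative to wild-type AAV9.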

brain [2] = test: NGS fold enrichment of synthetic library (passage 3) in BALB/c mice, first cross-species screen; format: in vivo
In short: as §1

brain [3] = test: NGS fold enrichment of synthetic library (passage 3) in C57Bl/6 mice, first cross-species screen; format: in vivo
In short: as §1

[4] = RNA from spinal cord of NHPs, NGS
[5] = RNA from brain of BALB/c mice, NGS
[6] = RNA from brain of C57Bl/6 mice, NGS

| Sequence | Fold enrichment over AAV9 in the brain of NHPs ([1]; RNA NGS, brain of NHPs) | Fold enrichment over AAV9 in the spinal cord of NHPs ([1]; RNA NGS, spinal cord of NHPs) | Fold enrichment over AAV9 in the brain of Mice (BALB/c) (brain [2]; RNA NGS, brain of BALB/c mice) | Fold enrichment over AAV9 in the brain of Mice (C57Bl/6) (brain [3]; RNA NGS, brain of C57Bl/6 mice) | Fold enrichment over AAV9 in the brain of NHPs ([1]; RNA from brain of NHPs, NGS) | Fold enrichment over AAV9 in the spinal cord of NHPs [1, 4] | Fold enrichment over AAV9 in the brain of Mice (BALB/c) (brain [2]; [5]) | Fold enrichment over AAV9 in the brain of Mice (C57Bl/6) (brain [3]; [6]) |
| --- | --- | --- | --- | --- | --- | --- | --- | --- |
| GSGQNQQTTASSHT | 1.618 fold | 7.404 fold | 0.678 fold | 0.745 fold | – | – | – | – |
| GSGQNQQTTSSNMT | 1.099 fold | 0.569 fold | 0.698 fold | 0.638 fold | – | – | – | – |
| GSGQNQQTVGGKNL | – | – | – | – | 1.203 fold | 0.128 fold | 1.051 fold | 0.777 fold |
| GSGQNQQTVGNPAT | 1.008 fold | 3.014 fold | 0.395 fold | 0.856 fold | – | – | – | – |
| GSGQNQQTVMTARA | 1.117 fold | 1.535 fold | 0.843 fold | 0.995 fold | – | – | – | – |
| GSGQNQQTVPSNLV | – | – | – | – | 1.201 fold | 0.791 fold | 0.281 fold | 0.434 fold |
| GSGQNQQTVPTRQT | 1.040 fold | 1.207 fold | 0.138 fold | 0.629 fold | – | – | – | – |
| GSGQNQQTVQSNLV | 1.103 fold | 2.350 fold | 0.698 fold | 0.577 fold | – | – | – | – |
| GSGQNQQTVSRQST | 1.820 fold | 0.472 fold | 0.796 fold | 1.330 fold | – | – | – | – |
| GSGQNQQVAGLNNT | – | – | – | – | 1.386 fold | 3.218 fold | 0.492 fold | 0.449 fold |
| GSGQNQQVAIRTST | 1.035 fold | 2.447 fold | 0.370 fold | 0.963 fold | – | – | – | – |
| GSGQNQQVGGKTVT | 1.032 fold | 6.195 fold | 0.821 fold | 1.094 fold | – | – | – | – |
| GSGQNQQVGSTVRT | 1.124 fold | 2.040 fold | 0.614 fold | 0.918 fold | – | – | – | – |
| GSGQNQQVHLSTGT | 1.811 fold | 0.266 fold | 0.455 fold | 1.011 fold | – | – | – | – |
| GSGQNQQVIPNSKT | 1.548 fold | 1.036 fold | 0.376 fold | 0.844 fold | – | – | – | – |
| GSGQNQQVIQGSNT | 2.521 fold | 8.778 fold | 0.810 fold | 0.935 fold | – | – | – | – |
| GSGQNQQVLTTART | 1.434 fold | 4.142 fold | 0.948 fold | 1.071 fold | – | – | – | – |
| GSGQNQQWDSRRQT | – | – | – | – | 1.321 fold | 0.531 fold | 0.825 fold | 1.059 fold |
| GSGQNQQYAGKILT | 1.112 fold | 0.300 fold | 0.431 fold | 1.078 fold | – | – | – | – |
| GSGQNQRASILVQT | – | – | – | – | 1.162 fold | 3.632 fold | 0.569 fold | 0.531 fold |

| Sequence | Fold enrichment over AAV9 in the brain of NHPs ([1]; RNA NGS, brain of NHPs) | Fold enrichment over AAV9 in the spinal cord of NHPs ([1]; RNA NGS, spinal cord of NHPs) | Fold enrichment over AAV9 in the brain of Mice (BALB/c) (brain [2]; RNA NGS, brain of BALB/c mice) | Fold enrichment over AAV9 in the brain of Mice (C57Bl/6) (brain [3]; RNA NGS, brain of C57Bl/6 mice) | Fold enrichment over AAV9 in the brain of NHPs ([1]; RNA from brain of NHPs, NGS) | Fold enrichment over AAV9 in the spinal cord of NHPs [1, 4] | Fold enrichment over AAV9 in the brain of Mice (BALB/c) (brain [2]; [5]) | Fold enrichment over AAV9 in the brain of Mice (C57Bl/6) (brain [3]; [6]) |
| --- | --- | --- | --- | --- | --- | --- | --- | --- |
| GSGQNQRATLSNQT | – | – | – | – | 1.339 fold | 1.084 fold | 0.723 fold | 0.947 fold |
| GSGQNQRAVLNDQT | – | – | – | – | 1.242 fold | 3.023 fold | 0.259 fold | 0.556 fold |
| GSGQNQRGALATQT | 1.722 fold | 1.117 fold | 0.891 fold | 0.899 fold | – | – | – | – |
| GSGQNQRLHGVDQT | – | – | – | – | 1.318 fold | 4.655 fold | 0.341 fold | 0.459 fold |
| GSGQNQRSSGGVQT | 1.723 fold | 2.056 fold | 1.165 fold | 1.805 fold | – | – | – | – |
| GSGQNQRTMVATQT | – | – | – | – | 1.130 fold | 1.122 fold | 0.554 fold | 0.649 fold |
| GSGQNQRVSNSQQT | 2.146 fold | 0.492 fold | 0.985 fold | 1.086 fold | – | – | – | – |
| GSGQNQSHYPSQQT | – | – | – | – | 1.228 fold | 4.315 fold | 0.402 fold | 0.644 fold |
| GSGQNQSQNHLQQT | 1.825 fold | 0.600 fold | 0.772 fold | 1.063 fold | – | – | – | – |
| GSGQNQYLRLELQT | 1.101 fold | 0.000 fold | 0.839 fold | 0.416 fold | – | – | – | – |
| GSGQNQYSIPVAQT | 1.891 fold | 1.194 fold | 0.297 fold | 0.511 fold | – | – | – | – |
| GSGQNQYSQSSMQT | 1.494 fold | 4.278 fold | 0.309 fold | 0.375 fold | – | – | – | – |
| GSGQNQYSSTNPQT | 1.542 fold | 2.251 fold | 0.535 fold | 0.544 fold | – | – | – | – |
| GSGQNRAHAFLQQT | 1.795 fold | 0.000 fold | 1.271 fold | 1.200 fold | – | – | – | – |
| GSGQNRAQIGTQQT | – | – | – | – | 1.138 fold | 0.469 fold | 0.654 fold | 0.776 fold |
| GSGQNRAQSRFQQT | 3.043 fold | 0.000 fold | 1.788 fold | 0.619 fold | – | – | – | – |
| GSGQNRGISISQQT | 1.057 fold | 2.166 fold | 0.566 fold | 0.686 fold | – | – | – | – |
| GSGQNRKPASFAQT | 3.204 fold | 0.000 fold | 1.061 fold | 0.892 fold | – | – | – | – |
| GSGQNSGVHFNQQT | – | – | – | – | 1.268 fold | 0.587 fold | 0.377 fold | 0.871 fold |
| GSGQNSYSHTSQQT | 1.765 fold | 2.262 fold | 0.658 fold | 1.130 fold | – | – | – | – |
